The text below walks through data of patent US20100035907A1, “NEW 2,4-DIANILINOPYRIMIDINES, PREPARATION THEREOF AS DRUGS, PHARMACEUTICAL COMPOSITIONS AND USE THEREOF ESSENTIALLY AS IKK INHIBITORS” (Sanofi-aventis, priority 2007, published 2010).

Broadly, the melting point is the temperature, or range, at which the solid turns liquid.

Consider `Cc1cc(Nc2ccnc(Nc3ccc(C(=O)N(C)C4CCCN(CCCC(F)(F)F)C4)cc3)n2)ccc1F` (centres unmarked) [Example 2, 4-[4-(4-Fluoro-3-methylphenylamino)pyrimidin-2-ylamino]-N-methyl-N-[1-(4,4,4-trifluorobutyl)piperidin-3-yl]benzamide], for which the melting point lay in the range of 100 to 110 °C.

Take `Cc1cc(Nc2ccnc(Nc3ccc(C(=O)N(C)C4CCCN(Cc5csnn5)C4)cc3)n2)ccc1F` (centres unmarked) [Example 3, 4-[4-(4-Fluoro-3-methylphenylamino)pyrimidin-2-ylamino]-N-methyl-N-[1-(1,2,3-thiadiazol-4-ylmethyl)piperidin-3-yl]benzamide]: the melting point was in the range of 125 to 130 °C.

Molecule `CN1CCC(N(C)C(=O)c2ccc(Nc3nccc(Nc4ccc(C(F)(F)F)cc4)n3)cc2)CC1` [Example 4, N-Methyl-N-(1-methylpiperidin-4-yl)-4-[4-(4-(trifluoromethyl)phenylamino)pyrimidin-2-ylamino]benzamide] showed a melting point of 238 to 244 °C.

Regarding `CN(C(=O)c1ccc(Nc2nccc(Nc3ccc(C(F)(F)F)cc3)n2)cc1)C1CCOCC1` [Example 5, N-Methyl-N-(tetrahydropyran-4-yl)-4-[4-(4-(trifluoromethyl)phenylamino)pyrimidin-2-ylamino]benzamide], the melting point was 254 to 256 °C.

On to `CN(C(=O)c1ccc(Nc2nccc(Nc3ccc(F)cc3)n2)cc1)C1CCN2CCCC2C1` (centres unmarked) [Example 7], for which the melting point lay within 230 to 235 °C.
